Structures can show the parent of a compound that is named as a salt.
Target: T1, human tryptase (Homo sapiens, UniProt P20231)
T1 construct: from tissue
Test: Inhibition of human tryptase (apparent dissociation constant Kiapp, chromogenic substrate tos-Gly-Pro-Arg-pNA)
Assay type: biochemical
Conditions: apparent dissociation constant in the presence of substrate; heparin 0.1–50 μg/ml; equilibrium conditions; read-out: Klapp
Source text: The documented pathophysiological effects of mast cell tryptase are caused directly by the enzymatic activity of the protease. Accordingly, they are reduced or blocked by inhibitors which inhibit the enzymatic activity of the tryptase. A suitable measure for the affinity of a reversible inhibitor to the target protease is the equilibrium dissociation constant Ki of the enzyme-inhibitor complex. This Ki value can be determined via the effect of the inhibitor on the tryptase-induced cleavage of a chromogenic peptide-p-nitroanilide substrate or a fluorogenic peptide-aminomethylcoumarin substrate.
The dissociation constants for the tryptase-inhibitor complexes are determined under equilibrium conditions in accordance with the general proposals of Bieth (Bieth J G, Pathophysiological Interpretation of kinetic constants of protease inhibitors, Bull. Europ. Physiopath. Resp. 16:183–195, 1980) and the methods of Sommerhoff et al. (Sommerhoff C P et al., A Kazal-type inhibitor of human mast cell tryptase: Isolation from the medical leech Hirudo medicinalis, characterization, and sequence analysis, Biol. Chem. Hoppe-Seyler 375: 685–694, 1994).
Human tryptase is isolated from lung tissue or prepared recombinantly; the specific activity of the protease, determined by titration, is usually greater than 85% of the theoretical value. […]

T1 sequence (P20231 31-275): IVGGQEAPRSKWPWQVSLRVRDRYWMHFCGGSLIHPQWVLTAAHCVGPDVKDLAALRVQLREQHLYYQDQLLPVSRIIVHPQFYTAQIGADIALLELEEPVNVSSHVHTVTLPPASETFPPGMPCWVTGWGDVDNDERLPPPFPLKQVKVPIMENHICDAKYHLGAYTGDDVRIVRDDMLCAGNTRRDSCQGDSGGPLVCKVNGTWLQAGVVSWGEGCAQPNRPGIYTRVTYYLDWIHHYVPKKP

Compound	Ki [nM]
NCc1cccc(CNC(=O)OCC#Cc2cccc(C#CCOC(=O)NCc3cccc(CN)c3)n2)c1 [Compound 1, 2,6-Bis-[3-(3-aminomethylbenzylaminocarbonyloxy)prop-1-ynyl]pyridine trihydrochloride]	2.6
NCc1ccc(CNC(=O)OCC#Cc2cccc(C#CCOC(=O)NCc3ccc(CN)cc3)n2)cc1 [Compound 2, 2,6-Bis-[3-(4-aminomethylbenzylaminocarbonyloxy)prop-1-ynyl]pyridine trihydrochloride]	6
